Data published in the NIST ThermoML archive (doi:10.1016/j.jct.2009.02.002).
Numbers after ± are expanded uncertainties.

Assay: xn = mol fraction of the nth substance listed
Conditions: 101 kPa, Liquid; for viscosity: Capillary tube (Ostwald / Ubbelohde) method; for mass density: Vibrating tube method; for speed of sound: automatically measured using an Anton Paar DSA 5000 instrument

CC(C)CCCC(C)CCCC(C)CCCCC(C)CCCC(C)CCCC(C)C (stereo unspecified) [2,6,10,15,19,23-hexamethyltetracosane] + CC(C)CO
viscosity (298.15 K, x2 = 0.0803): 23.81 ± 0.12 mPa·s | viscosity (298.15 K, x2 = 0.1032): 22.85 ± 0.11 mPa·s | viscosity (298.15 K, x2 = 0.1672): 20.71 ± 0.1 mPa·s | viscosity (298.15 K, x2 = 0.2045): 19.78 ± 0.099 mPa·s | viscosity (298.15 K, x2 = 0.2551): 18.76 ± 0.094 mPa·s | viscosity (298.15 K, x2 = 0.3201): 17.7 ± 0.089 mPa·s | viscosity (298.15 K, x2 = 0.417): 16.34 ± 0.083 mPa·s | viscosity (298.15 K, x2 = 0.4978): 15.11 ± 0.077 mPa·s | viscosity (298.15 K, x2 = 0.6316): 12.54 ± 0.065 mPa·s | viscosity (298.15 K, x2 = 0.7005): 10.9 ± 0.058 mPa·s | viscosity (298.15 K, x2 = 0.8028): 8.199 ± 0.045 mPa·s | viscosity (298.15 K, x2 = 0.8482): 6.959 ± 0.04 mPa·s | viscosity (298.15 K, x2 = 0.9095): 5.361 ± 0.032 mPa·s | viscosity (298.15 K, x2 = 0.9448): 4.53 ± 0.028 mPa·s | mass density (298.15 K, x2 = 0.0803): 804.648 ± 0.14 kg/m3 | mass density (298.15 K, x2 = 0.1032): 804.528 ± 0.14 kg/m3 | mass density (298.15 K, x2 = 0.1672): 804.219 ± 0.14 kg/m3 | mass density (298.15 K, x2 = 0.2045): 804.051 ± 0.14 kg/m3 | mass density (298.15 K, x2 = 0.2551): 803.824 ± 0.14 kg/m3 | mass density (298.15 K, x2 = 0.3201): 803.546 ± 0.14 kg/m3 | mass density (298.15 K, x2 = 0.417): 803.131 ± 0.14 kg/m3 | mass density (298.15 K, x2 = 0.4978): 802.728 ± 0.14 kg/m3 | mass density (298.15 K, x2 = 0.6316): 801.934 ± 0.14 kg/m3 | mass density (298.15 K, x2 = 0.7005): 801.422 ± 0.14 kg/m3 | mass density (298.15 K, x2 = 0.8028): 800.494 ± 0.14 kg/m3 | mass density (298.15 K, x2 = 0.8482): 800.015 ± 0.14 kg/m3 | mass density (298.15 K, x2 = 0.9095): 799.392 ± 0.14 kg/m3 | mass density (298.15 K, x2 = 0.9448): 799.012 ± 0.14 kg/m3 | speed of sound (298.15 K, x2 = 0.0803): 1377 ± 0.5 m/s | speed of sound (298.15 K, x2 = 0.1032): 1375.6 ± 0.5 m/s | speed of sound (298.15 K, x2 = 0.1672): 1371.4 ± 0.5 m/s | speed of sound (298.15 K, x2 = 0.2045): 1368.7 ± 0.5 m/s | speed of sound (298.15 K, x2 = 0.2551): 1364.9 ± 0.5 m/s | speed of sound (298.15 K, x2 = 0.3201): 1359.9 ± 0.5 m/s | speed of sound (298.15 K, x2 = 0.417): 1351.3 ± 0.5 m/s | speed of sound (298.15 K, x2 = 0.4978): 1343.1 ± 0.5 m/s | speed of sound (298.15 K, x2 = 0.6316): 1325.5 ± 0.5 m/s | speed of sound (298.15 K, x2 = 0.7005): 1313.6 ± 0.5 m/s | speed of sound (298.15 K, x2 = 0.8028): 1289.2 ± 0.5 m/s | speed of sound (298.15 K, x2 = 0.8482): 1274.6 ± 0.5 m/s | speed of sound (298.15 K, x2 = 0.9095): 1248.9 ± 0.5 m/s | speed of sound (298.15 K, x2 = 0.9448): 1229.5 ± 0.6 m/s | viscosity (303.15 K, x2 = 0.0803): 18.82 ± 0.095 mPa·s | viscosity (303.15 K, x2 = 0.1032): 18.11 ± 0.092 mPa·s | viscosity (303.15 K, x2 = 0.1672): 16.5 ± 0.084 mPa·s | viscosity (303.15 K, x2 = 0.2045): 15.78 ± 0.081 mPa·s | viscosity (303.15 K, x2 = 0.2551): 14.97 ± 0.077 mPa·s | viscosity (303.15 K, x2 = 0.3201): 14.12 ± 0.073 mPa·s | viscosity (303.15 K, x2 = 0.417): 12.99 ± 0.068 mPa·s | viscosity (303.15 K, x2 = 0.4978): 12 ± 0.063 mPa·s | viscosity (303.15 K, x2 = 0.6316): 9.98 ± 0.053 mPa·s | viscosity (303.15 K, x2 = 0.7005): 8.721 ± 0.048 mPa·s | viscosity (303.15 K, x2 = 0.8028): 6.648 ± 0.038 mPa·s | viscosity (303.15 K, x2 = 0.8482): 5.693 ± 0.034 mPa·s | viscosity (303.15 K, x2 = 0.9095): 4.404 ± 0.027 mPa·s | viscosity (303.15 K, x2 = 0.9448): 3.703 ± 0.023 mPa·s | mass density (303.15 K, x2 = 0.0803): 801.388 ± 0.14 kg/m3 | mass density (303.15 K, x2 = 0.1032): 801.259 ± 0.14 kg/m3 | mass density (303.15 K, x2 = 0.1672): 800.916 ± 0.14 kg/m3 | mass density (303.15 K, x2 = 0.2045): 800.733 ± 0.14 kg/m3 | mass density (303.15 K, x2 = 0.2551): 800.484 ± 0.14 kg/m3 | mass density (303.15 K, x2 = 0.3201): 800.183 ± 0.14 kg/m3 | mass density (303.15 K, x2 = 0.417): 799.716 ± 0.14 kg/m3 | mass density (303.15 K, x2 = 0.4978): 799.277 ± 0.14 kg/m3 | mass density (303.15 K, x2 = 0.6316): 798.413 ± 0.14 kg/m3 | mass density (303.15 K, x2 = 0.7005): 797.855 ± 0.14 kg/m3 | mass density (303.15 K, x2 = 0.8028): 796.852 ± 0.14 kg/m3 | mass density (303.15 K, x2 = 0.8482): 796.317 ± 0.14 kg/m3 | mass density (303.15 K, x2 = 0.9095): 795.551 ± 0.14 kg/m3 | mass density (303.15 K, x2 = 0.9448): 795.162 ± 0.14 kg/m3 | speed of sound (303.15 K, x2 = 0.0803): 1359.1 ± 0.5 m/s | speed of sound (303.15 K, x2 = 0.1032): 1357.7 ± 0.5 m/s | speed of sound (303.15 K, x2 = 0.1672): 1353.4 ± 0.5 m/s | speed of sound (303.15 K, x2 = 0.2045): 1350.8 ± 0.5 m/s | speed of sound (303.15 K, x2 = 0.2551): 1347.2 ± 0.5 m/s | speed of sound (303.15 K, x2 = 0.3201): 1341.8 ± 0.5 m/s | speed of sound (303.15 K, x2 = 0.417): 1333.4 ± 0.5 m/s | speed of sound (303.15 K, x2 = 0.4978): 1325.1 ± 0.5 m/s | speed of sound (303.15 K, x2 = 0.6316): 1307.7 ± 0.5 m/s | speed of sound (303.15 K, x2 = 0.7005): 1295.9 ± 0.5 m/s | speed of sound (303.15 K, x2 = 0.8028): 1271.7 ± 0.5 m/s | speed of sound (303.15 K, x2 = 0.8482): 1257.1 ± 0.5 m/s | speed of sound (303.15 K, x2 = 0.9095): 1231.6 ± 0.5 m/s | speed of sound (303.15 K, x2 = 0.9448): 1212.5 ± 0.6 m/s | viscosity (308.15 K, x2 = 0.0803): 15.28 ± 0.079 mPa·s | viscosity (308.15 K, x2 = 0.1032): 14.72 ± 0.076 mPa·s | viscosity (308.15 K, x2 = 0.1672): 13.45 ± 0.07 mPa·s | viscosity (308.15 K, x2 = 0.2045): 12.85 ± 0.067 mPa·s | viscosity (308.15 K, x2 = 0.2551): 12.18 ± 0.064 mPa·s | viscosity (308.15 K, x2 = 0.3201): 11.47 ± 0.06 mPa·s | viscosity (308.15 K, x2 = 0.417): 10.54 ± 0.056 mPa·s | viscosity (308.15 K, x2 = 0.4978): 9.757 ± 0.053 mPa·s | viscosity (308.15 K, x2 = 0.6316): 8.196 ± 0.045 mPa·s | viscosity (308.15 K, x2 = 0.7005): 7.217 ± 0.041 mPa·s | viscosity (308.15 K, x2 = 0.8028): 5.581 ± 0.033 mPa·s | viscosity (308.15 K, x2 = 0.8482): 4.802 ± 0.029 mPa·s | viscosity (308.15 K, x2 = 0.9095): 3.728 ± 0.023 mPa·s | viscosity (308.15 K, x2 = 0.9448): 3.115 ± 0.019 mPa·s | mass density (308.15 K, x2 = 0.0803): 798.13 ± 0.14 kg/m3 | mass density (308.15 K, x2 = 0.1032): 797.982 ± 0.14 kg/m3 | mass density (308.15 K, x2 = 0.1672): 797.596 ± 0.14 kg/m3 | mass density (308.15 K, x2 = 0.2045): 797.401 ± 0.14 kg/m3 | mass density (308.15 K, x2 = 0.2551): 797.129 ± 0.14 kg/m3 | mass density (308.15 K, x2 = 0.3201): 796.807 ± 0.14 kg/m3 | mass density (308.15 K, x2 = 0.417): 796.307 ± 0.14 kg/m3 | mass density (308.15 K, x2 = 0.4978): 795.831 ± 0.14 kg/m3 | mass density (308.15 K, x2 = 0.6316): 794.872 ± 0.14 kg/m3 | mass density (308.15 K, x2 = 0.7005): 794.26 ± 0.14 kg/m3 | mass density (308.15 K, x2 = 0.8028): 793.147 ± 0.14 kg/m3 | mass density (308.15 K, x2 = 0.8482): 792.582 ± 0.14 kg/m3 | mass density (308.15 K, x2 = 0.9095): 791.791 ± 0.14 kg/m3 | mass density (308.15 K, x2 = 0.9448): 791.339 ± 0.14 kg/m3 | speed of sound (308.15 K, x2 = 0.0803): 1341.4 ± 0.5 m/s | speed of sound (308.15 K, x2 = 0.1032): 1340 ± 0.5 m/s | speed of sound (308.15 K, x2 = 0.1672): 1335.6 ± 0.5 m/s | speed of sound (308.15 K, x2 = 0.2045): 1332.9 ± 0.5 m/s | speed of sound (308.15 K, x2 = 0.2551): 1329.2 ± 0.5 m/s | speed of sound (308.15 K, x2 = 0.3201): 1324 ± 0.5 m/s | speed of sound (308.15 K, x2 = 0.417): 1315.5 ± 0.5 m/s | speed of sound (308.15 K, x2 = 0.4978): 1307.2 ± 0.5 m/s | speed of sound (308.15 K, x2 = 0.6316): 1290.1 ± 0.5 m/s | speed of sound (308.15 K, x2 = 0.7005): 1278.1 ± 0.5 m/s | speed of sound (308.15 K, x2 = 0.8028): 1254.1 ± 0.5 m/s | speed of sound (308.15 K, x2 = 0.8482): 1239.6 ± 0.5 m/s | speed of sound (308.15 K, x2 = 0.9095): 1214.3 ± 0.5 m/s | speed of sound (308.15 K, x2 = 0.9448): 1195.4 ± 0.6 m/s
